Results on one compound are retold here after article PMC6278385, “Preclinical Pharmacokinetics of C118P, a Novel Prodrug of Microtubules Inhibitor and Its Metabolite C118 in Mice, Rats, and Dogs” (Molecules, 2018).

The structures appear in SMILES notation.

A short description of the data set: Excretion in rats (bile, urine, feces). It is filed as in vivo. The note with it: i.v. C118P 20 mg/kg. As for the experimental part:
Twelve rats (weight 220–260 g) with half males and half females were anesthetized with diethyl ether after fasted overnight. A median laparotomy was performed and the bile duct was cannulated with a catheter. After intravenous administration (20 mg/kg) of C118P solution, bile samples were collected at 1, 2, 4, 6, 10 and 24 h in EDTA-coated tubes. The accurate volume of bile samples were measured by weight loss method. A volume of 50 μL of bile was prepared by protein precipitation and determined by the method described above. The total cumulative molar excretion percentage of C118P and C118 in bile of ten rats was calculated according to the total molar amount of C118P and C118 and the dose.
Six rats (weight 200–230 g) with half males and half females were fasted overnight. After intravenous administration (20 mg/kg), urine and feces samples were collected at 12, 24, 36, 48, 60 and 72 h. The feces were collected in 200 mL of EDTA solution (100 mg/mL) and grinded into a suspension. The accurately volume amount of urine and feces samples were measured by weight loss method. A volume of 50 μL of urine or feces suspension was prepared by protein precipitation and determined by the method described above. The cumulative molar excretion percentage of C118P and C118 in urine or feces was calculated according to the concentrations of C118P and C118, the volume of each time period.

In the case of `COc1cc(OC)cc(-c2nc[nH]c2-c2ccc(OC)c(OP(=O)([O-])[O-])c2)c1.[Na+].[Na+]` [C118P], the “sulfuric acid conjugation in urine” value is “no sulfuric acid conjugation was found”.
